Source: patent publication US9266872B2, “2-hydroxyarylamide derivative or pharmaceutically acceptable salt thereof, preparation method thereof, and pharmaceutical composition for preventing or treating cancer containing same as active ingredient” (KOREA RESEARCH INSTITUTE OF BIOSCIENCE AND BIOTECHNOLOGY, priority 2011, dated 2016)
Where two headings read alike, the source gives them in different places.

How the values were obtained:
[1] = biological target: T1, TMPRSS4 serine protease (Homo sapiens, UniProt Q9NRS4); assay: Inhibitory effect on TMPRSS4 serine protease activity using peptide substrate; type: biochemical; conditions: kallikrein peptide substrate 100 μM, DMSO negative control; for Intracellular protease activity Inhibition % 10 uM / inhibition at 10 µM: 10 uM compound; for inhibition at 10 µM: read-out: Intracellular protease activity Inhibition % 10 uM; for inhibition at 30 µM: read-out: Intracellular protease activity Inhibition % 30 uM; for inhibition at 100 µM: read-out: Intracellular protease activity Inhibition % 100 uM
T1 construct: TMPRSS4 serine protease domain (205th Val˜437th Leu) was cloned in pET21b/NdeI-XhoI; inferred from pET21b XhoI cloning and Ni-NTA purification) (C); made in house; host or cells: E. coli BL21 (DE3)
T1 sequence (Q9NRS4 205-437): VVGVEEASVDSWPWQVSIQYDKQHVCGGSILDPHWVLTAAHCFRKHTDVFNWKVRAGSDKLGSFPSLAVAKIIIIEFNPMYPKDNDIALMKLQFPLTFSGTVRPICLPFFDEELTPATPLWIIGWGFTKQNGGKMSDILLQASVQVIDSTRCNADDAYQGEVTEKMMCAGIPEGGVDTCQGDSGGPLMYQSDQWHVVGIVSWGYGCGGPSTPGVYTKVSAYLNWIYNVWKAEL
Procedure: TMPRSS4 serine protease domain (205th Val˜437th Leu) was cloned in pET21b/NdeI-XhoI, which was introduced in E. coli BL21 (DE3). At this time, FlagX2-enterokinase cleavage site ([…]; total 15 amino acids) was inserted in N-terminal of TMPRSS4 serine protease domain as shown in FIG. 1. The forward and reverse primers for PCR used for the cloning were presented by SEQ. ID. NO: 1 and NO: 2.
The cells were cultured in 10 ml of LB containing ampicillin at 37° C. overnight. IL of LB+ampicillin was added thereto, followed by further culture until OD reached 0.6˜0.8. 0.1 mM IPTG was added thereto, followed by further culture for 16 hours. Cell pellet was obtained, purified by Ni-NTA (Qiagen), and dialyzed. TMPRSS4 serine protease (pro-form) labeled with 2 mg of 2Xflag-enterokinase cleavage site was conjugated to Ni-NTA resin (4°, overnight). Enterokinase (NEB) was treated thereto at the concentration of 0.0002%/w/w at room temperature for 5 hours. The sample was washed, eluted with 50 mM imidazole in 20 mM of sodium phosphate buffer, and then dialyzed.
The protein activity was evaluated by measuring fluorescence shown during hydrolysis of the peptide. […] Reaction was induced after adding 100 μM of the peptide substrate into reaction buffer (50 mM Tris-HCl (pH 8.0), 10 mM CaCl2, 1 μM ZnCl2). Then, fluorescence was measured at 5 minutes interval (excitation 385 nm, emission 455 nm).
Then, fluorescence (excitation 385 nm/emission 455 nm) was measured at 5 minutes interval for 150 minutes. […] Dimethylsulfoxide (DMSO) was used as the negative control.

[2] = test system: TMPRSS4 over-expressing colorectal cancer cell line SW480; assay: Inhibitory effect on infiltration of cancer cells over-expressing TMPRSS4 (matrigel trans-well); type: cell-based; conditions: Homo sapiens, read-out: Inhibition rate of target-expressing colorectal cancer cell activity (%, 0.1~2 uM)
Procedure: The cells were distributed in a 6-well plate at the density of 3×10^5 cells/well, followed by transfection. 48 hours later, the medium was replaced with a selection medium (800 μg/ml G418 medium). G418-resistant clone was separated, followed by culture for 2 weeks, during which selection was performed.
The cancer cell line constructed in step 1 was distributed in a 24-well trans-well plate (8 μm pore size; Costar, USA) whose porous membrane was coated with 100 μl of matrigel (BD Biosciences, USA) diluted with serum-free medium at the concentration of 250 μg/ml, which stood at room temperature for 1 hour for solidification. Lower chamber of the trans-well plate was coated with 100 μl of collagen type I (Sigma) at the concentration of 20 μg/ml. […] While culturing the cells in a 37, 5% CO2 incubator for 48 hours, cell migration from the upper chamber to lower chamber was allowed. […] The excessive crystal violet solution was washed away with distilled water. The migrated cell number was counted from 5 randomly selected areas (×200). The experiment was repeated at least twice under the same condition, and the representative result was presented.
The inhibitory effect of each compound on the infiltration of TMPRSS4 over-expressing colorectal cancer cell line SW480 was calculated by Mathematical Formula 1, which presents the number of infiltrated cells with % by the number of infiltrated cells in the negative control treated with DMSO. Infiltration Inhibition Rate (%)=100−Infiltrated cell number with the treatment of each compound/Infiltrated cell number with the treatment of DMSO×100 [Mathematical Formula 1]

Row | inhibition at 10 µM [1] | inhibition at 30 µM ([1]; 30 uM compound) | inhibition at 100 µM ([1]; 100 uM compound) | Compound | further results
1 | 51 to 100% | 100% | 100% | O=C(Nc1cc(Br)cc(C(F)(F)F)c1)c1cc(Cl)ccc1O [Example 22, N-(3-bromo-5-(trifluoromethyl)phenyl)-5-chloro-2-hydroxybenzamide] | Intracellular protease activity Inhibition % 10 uM [1]: 64%; inhibition at 0.1 µM ([2]; 0.1 uM, SW480 over-expressing TMPRSS4, 48 hours): 43%
2 | 51 to 100% | 95% | 99% | O=C(Nc1ccc(Cl)c(C(F)(F)F)c1)c1cc(Cl)ccc1O [Example 32, 5-chloro-N-(4-chloro-3-(trifluoromethyl)phenyl)-2-hydroxybenzamide] | Intracellular protease activity Inhibition % 10 uM [1]: 71%; inhibition at 0.8 µM ([2]; 0.8 uM, SW480 over-expressing TMPRSS4, 48 hours): 68%
3 | – | 75% | 100% | O=C(Nc1nnc(C(F)(F)F)s1)c1cc(Cl)ccc1O [Example 28, 5-chloro-2-hydroxy-N-(5-trifluoromethyl-[1,3,4]thiadiazole-2-yl)-benzamide] | inhibition at 2 µM ([2]; 2 uM, SW480 over-expressing TMPRSS4, 48 hours): 52%
4 | – | 0% | 2% | O=C(Nc1ncccn1)c1cc(Cl)ccc1O [Example 49, 5-chloro-2-hydroxy-N-(pyrimidine-2-yl)benzamide] | –
5 | – | 0% | 11% | O=C(Nc1ccccn1)c1cc(Cl)ccc1O [Example 40, 5-chloro-2-hydroxy-N-(pyridine-2-yl)benzamide] | –
6 | 0% | 53% | – | COc1ccc(O)c(C(=O)Nc2cc(C(F)(F)F)cc(C(F)(F)F)c2)c1 [Example 7, N-(3,5-bis(trifluoromethyl)phenyl)-2-hydroxy-5-methoxybenzamide] | –
7 | 40% | 100% | – | O=C(Nc1cc(C(F)(F)F)ccc1Br)c1cc(Cl)ccc1O [Example 20, N-(2-bromo-5-(trifluoromethyl)phenyl)-5-chloro-2-hydroxybenzamide] | –
8 | – | 0% | 0% | Cc1cc(C)nc(NC(=O)c2cc(Cl)ccc2O)n1 [Example 48, 5-chloro-N-(4,6-dimethylpyrimidine-2-yl)-2-hydroxybenzamide] | –
9 | 3% | 30% | – | Nc1ccc(O)c(C(=O)Nc2cc(C(F)(F)F)cc(C(F)(F)F)c2)c1 [Example 31, 5-amino-N-(3,5-bis(trifluoromethyl)phenyl)-2-hydroxybenzamide] | –
10 | 0% | 19% | – | O=C(Nc1cc(C(F)(F)F)cc(C(F)(F)F)c1)c1cc(Cl)cnc1O [Example 67, N-(3,5-bis(trifluoromethyl)phenyl)-5-chloro-2-hydroxynicotineamide] | –
11 | 0% | 21% | – | NC(=O)c1ccc(O)c(C(=O)Nc2cc(C(F)(F)F)cc(C(F)(F)F)c2)c1 [Example 38, N^3-(3,5-bis-trifluoromethyl-phenyl)-4-hydroxy-isophthalamide] | –
12 | 17% | – | – | O=C(NC1=NCCS1)c1cc(Cl)ccc1O [Example 69, 5-chloro-N-(4,5-dihydrothiazol-2-yl)-2-hydroxybenzamide] | –
13 | – | 31% | 51% | O=C(Nc1c(F)c(F)nc(F)c1F)c1cc(Cl)ccc1O [Example 43, 5-chloro-2-hydroxy-N-(perfluoropyridine-4-yl)benzamide] | –
14 | 51 to 100% | 99% | 100% | O=C(Nc1cc(C(F)(F)F)ccc1Cl)c1cc(Cl)ccc1O [Example 23, 5-chloro-N-(2-chloro-5-(trifluoromethyl)phenyl)-2-hydroxybenzamide] | Intracellular protease activity Inhibition % 10 uM [1]: 64%
15 | 12% | 47% | 88% | N#Cc1cccc(NC(=O)c2cc(Cl)ccc2O)c1 [Example 11, 5-chloro-N-(3-cyanophenyl)-2-hydroxybenzamide] | –
16 | 32% | 79% | – | O=C(Nc1cc(C(F)(F)F)cc(C(F)(F)F)c1)c1ccc(C(F)(F)F)cc1O [Example 13, N-(3,5-bis(trifluoromethyl)phenyl)-4-(trifluoromethyl)-2-hydroxybenzamide] | –
17 | 37% | 59% | – | O=C(Nc1ccc(C(F)(F)F)c(C(F)(F)F)c1)c1cc(Cl)ccc1O [Example 62, N-(3,4-bis(trifluoromethyl)phenyl)-5-chloro-2-hydroxybenzamide] | –
18 | 51 to 100% | – | – | Cc1nc(NC(=O)c2cc(Cl)ccc2O)n[nH]1 [Example 75, 5-chloro-2-hydroxy-N-(5-methyl-1H-1,2,4-triazol-3-yl)benzamide] | Intracellular protease activity Inhibition % 10 uM [1]: 58%
19 | – | 61% | 100% | O=C(Nc1nc(C(F)(F)F)cs1)c1cc(Cl)ccc1O [Example 52, 5-chloro-2-hydroxy-N-(4-(trifluoromethyl)thiazole-2-yl)benzamide] | –
20 | 0% | 20% | – | O=C(Nc1cc(C(F)(F)F)cc(C(F)(F)F)c1)c1ccccc1O [Example 5, N-(3,5-bis(trifluoromethyl)phenyl)-2-hydroxybenzamide] | –
21 | 36% | 63% | – | O=C(NCc1cc(C(F)(F)F)cc(C(F)(F)F)c1)c1cc(Cl)ccc1O [Example 24, N-(3,5-bis-trifluoromethyl-benzyl)-5-chloro-2-hydroxy-benzamide] | –
22 | – | – | – | O=C(Nc1ccc(Br)c(C(F)(F)F)c1)c1cc(Cl)ccc1O [Example 63, N-(4-bromo-3-(trifluoromethyl)phenyl)-5-chloro-2-hydroxybenzamide] | Intracellular protease activity Inhibition % 10 uM [1]: 30%; Intracellular protease activity Inhibition % 30 uM ([1]; 30 uM compound): 46%; Intracellular protease activity Inhibition % 100 uM ([1]; 100 uM compound): 98%
23 | – | 14% | 55% | O=C(Nc1ccc(Cl)cn1)c1cc(Cl)ccc1O [Example 42, 5-chloro-N-(5-chloropyridine-2-yl)-2-hydroxybenzamide] | –
24 | 51 to 100% | – | – | Cc1cnc(NC(=O)c2cc(Cl)ccc2O)s1 [Example 71, 5-chloro-2-hydroxy-N-(5-methylthiazole-2-yl)benzamide] | Intracellular protease activity Inhibition % 10 uM [1]: 66%
25 | 43% | 100% | – | O=C(Nc1cc(C(F)(F)F)cc(C(F)(F)F)c1Cl)c1cc(Cl)ccc1O [Example 29, 5-chloro-N-(2-chloro-3,5-bis-trifluoromethyl-phenyl)-2-hydroxy-benzamide] | –
26 | 15% | 53% | – | N#Cc1ccc(O)c(C(=O)Nc2cc(C(F)(F)F)cc(C(F)(F)F)c2)c1 [Example 56, N-(3,5-bis(trifluoromethyl)phenyl)-5-cyano-2-hydroxybenzamide] | –
27 | 5% | 31% | – | O=C(Nc1cc(C(F)(F)F)cc(C(F)(F)F)c1)c1cc(-c2ccc(F)cc2F)ccc1O [Example 30] | –

Row | Compound | inhibition at 10 µM [1] | inhibition at 30 µM ([1]; 30 uM compound) | inhibition at 100 µM ([1]; 100 uM compound) | further results
28 | N#Cc1ccc(NC(=O)c2cc(Cl)ccc2O)cc1C(F)(F)F [Example 19, 5-chloro-N-(4-cyano-3-(trifluoromethyl)phenyl)-2-hydroxybenzamide] | – | 88% | 100% | inhibition at 2 µM ([2]; SW480, 48 h): 81%
